# Laboratory results: patent publication US20260077055A1, “COMPOSITIONS OF POLYPLEXES AND SAPONINS” (SAPREME TECHNOLOGIES B.V., priority 2022, published 2026)
# Test system: HEK293FT cells
# Assay: pEGFP-N3 polyplex transfection of HEK293FT cells, live cell imaging
# Assay type: cell-based
# Method: Spectrophotometry: Concentrations were determined using either a Thermo Nanodrop 2000 spectrometer or Perkin Elmer Lambda 365 Spectrophotometer. DLS measurements: DLS measurements were performed on a Malvern Nano ZS (Malvern Instruments, U.K.), operating at 633 nm with a 173° scattering angle, at 25 or 37° C. DLS mean diameters were obtained from the intensity particle size distribution provided by Malvern Zetasizer Software. DLS histograms were obtained from the intensity particle size distributions. Zeta-potential: The zeta-potential values of the polyplexes were obtained by laser doppler anemometry (LDA), measuring the mean electrophoretic mobility (Malvern Zetasizer Nano ZS, Malvern Instruments, U.K.). Measurements were performed in 10 mM HEPES pH 7.1, 150 mM NaCl. TEM measurements: TEM measurements were performed on a JEOL JEM-1011 operated at 100 kV electron microscope, equipped with a camera S5 MegaView G2. A drop of a solution of polyplexes (0.1 mg/mL) was settled on a PELCO® TEM carbon type-B film copper grid and allowed to dry at room temperature for 1 h. Infrared Spectroscopy: FT-IR spectra were recorded on a Bruker Vertex 70v, equipped with a RockSolid interferometer, after preparing the samples (1-2 mg) as KBr pellets. Spectra were processed using OPUS 7.8 software (Bruker). NMR Spectroscopy: 1H NMR spectra were recorded on a 11.7 T Bruker DRX-500 spectrometer. Chemical shifts are reported in ppm (o units) downfield from the HOD residual solvent peak (CD3OD). Experiments were recorded acquiring 64-512 scans, with a pre-scan delay (d1) of 12 s, and an acquisition time (aq) of 4 s at 300 K. 13C NMR spectrum was recorder on a 9.39 T Varian Innova 400 spectrometer. MestReNova 14.2 software (Mestrelab Research) was used for spectra processing. Cell culture conditions and treatments: HEK293FT, A431, A2058, Neuro2A, Hepa1-6 and MDA-MB 468 were maintained in 10% FBS-supplemented DMEM medium (PAN-Biotech GmbH, or Lonza Group, Basel, Switzerland)+Pen/Strep at 37° C. with 5% CO2. […]
smiles,measurement,setting,value
CC(=O)OC1C(C)OC(OC2C(C)OC(OC(=O)[C@]34CCC(C)(C)CC3C3=CCC5[C@@]6(C)CC[C@H](OC7OC(C(=O)O)C(O)C(OC8OCC(O)C(O)C8O)C7OC7OC(CO)C(O)C(O)C7O)[C@@](C)(/C=N/NC(=O)CCCCCN7C(=O)C=CC7=O)C6CC[C@@]5(C)[C@]3(C)C[C@H]4O)C(OC3OC(C)C(OC4OCC(O)C(OC5OC(CO)C(O)C(O)C5O)C4O)C(O)C3O)C2O)C(O)C1OC1OCC(O)C(O)C1O (stereo partly drawn) [SO1861-EMCH],pEGFP-N3 transfection (GFP expression),"40 pM or 120 pM pEGFP-N3, N/P 8, SO1861-EMCH = 4000 nM co-administered with PAMAM G5-(PEG N3)3.5 polyplexes",nearly all cells were transfected
same,toxicity (cell confluency),"40 pM or 120 pM pEGFP-N3 polyplexes, N/P 8, SO1861-EMCH = 4000 nM co-administered with PAMAM G5-(PEG N3)3.5 polyplexes",strong toxicity was observed
same,toxicity of SO1861-EMCH alone,"4000 nM, without polyplex (data not shown)",not toxic
